Test results published in ChEMBL document CHEMBL1151596, “7-Oxa[2.2.1]bicycloheptane-2,3-dicarboxylic acid derivatives as phosphatase inhibitors” (Bioorg Med Chem Lett, 1997).

Experiments:
Jurkat = test: Effect on the transcription and release of IL-2 in a reporter-gene assay (RGA); assay type: functional, cell-based; conditions: Homo sapiens
[1] = Compound was tested for inhibition of protein phosphatase 2B (PP2B, Calcineurin)
[2] = Compound was tested for inhibition of protein phosphatase 2A (PP2A)
[3] = Effect on the transcription and release of thymidine kinase in a reporter-gene assay (RGA); assay type: functional
T-cell = test: Compound was tested for inhibition of IL-2 secretion in mouse T cell line; assay type: functional, cell-based
[4] = Compound was tested for inhibition of […] ([…])

SMILES: O=C(O)[C@@H]1[C@H](C(=O)O)[C@H]2CC[C@@H]1O2
- IC50 (Jurkat): > 100 µM
- Ki [1]: 3.02 µM
- Ki [2]: 0.17 µM
- IC50 [3]: 42 µM

SMILES: CN(C)C(=O)[C@H]1[C@@H](C(=O)O)[C@@H]2CC[C@H]1O2
- IC50 (Jurkat): 4.7 µM
- Ki [1]: 2.78 µM
- Ki [2]: 0.18 µM
- IC50 (T-cell): 5 µM
- IC50 [3]: 100 µM

SMILES: CCOC(=O)[C@@H]1[C@H](C(=O)OCC)[C@H]2CC[C@@H]1O2
- Ki [1]: > 100 µM

SMILES: COC(=O)[C@H]1[C@@H](C(=O)O)[C@@H]2CC[C@H]1O2 (single isomer, unassigned)
- Ki [1]: > 100 µM

SMILES: C[C@@]12C(=O)OC(=O)[C@]1(C)[C@H]1CC[C@@H]2O1 [CANTHARIDIN]
- Ki [1]: 10.8 µM
- Ki [2]: 0.065 µM

SMILES: C/C=C/C[C@@H](C)[C@@H](O)[C@H]1C(=O)N[C@@H](CC)C(=O)N(C)CC(=O)N(C)[C@@H](CC(C)C)C(=O)N[C@@H](C(C)C)C(=O)N(C)[C@@H](CC(C)C)C(=O)N[C@@H](C)C(=O)N[C@H](C)C(=O)N(C)[C@@H](CC(C)C)C(=O)N(C)[C@@H](CC(C)C)C(=O)N(C)[C@@H](C(C)C)C(=O)N1C [CYCLOSPORINE]
- IC50 (Jurkat): 0.008 µM

SMILES: O=C1OC(=O)[C@H]2[C@@H]1[C@@H]1CC[C@H]2O1 [DEMETHYL-CANTHARIDIN]
- IC50 (Jurkat): > 22 µM
- Ki [1]: 3.33 µM
- IC50 [2]: 0.97 µM
- Ki [2]: 0.2 µM
- IC50 [3]: 100 µM
- IC50 [4]: 5 µM
